Test results reported in article doi:10.1101/2025.11.24.689453v1, “Structural basis of stereochemical promiscuity by an umami taste receptor ortholog, Tas1r1/Tas1r3 from pufferfish” (biorxiv, 2025).

Experiments:
[1] = molecular target: T1, full-length pufferfish Tas1r1/Tas1r3 (Takifugu rubripes, UniProt Q2MHJ8+Q2MHK1); assay: luminometric Ca2+ response (mt-clytin-II), HEK293T; type: cell-based; settings: agonist
T1 construct: full-length heterodimer, transiently expressed in HEK293T with rat G15i2 and mt-apoclytin-II
T1 sequence (Q2MHK1 25-845): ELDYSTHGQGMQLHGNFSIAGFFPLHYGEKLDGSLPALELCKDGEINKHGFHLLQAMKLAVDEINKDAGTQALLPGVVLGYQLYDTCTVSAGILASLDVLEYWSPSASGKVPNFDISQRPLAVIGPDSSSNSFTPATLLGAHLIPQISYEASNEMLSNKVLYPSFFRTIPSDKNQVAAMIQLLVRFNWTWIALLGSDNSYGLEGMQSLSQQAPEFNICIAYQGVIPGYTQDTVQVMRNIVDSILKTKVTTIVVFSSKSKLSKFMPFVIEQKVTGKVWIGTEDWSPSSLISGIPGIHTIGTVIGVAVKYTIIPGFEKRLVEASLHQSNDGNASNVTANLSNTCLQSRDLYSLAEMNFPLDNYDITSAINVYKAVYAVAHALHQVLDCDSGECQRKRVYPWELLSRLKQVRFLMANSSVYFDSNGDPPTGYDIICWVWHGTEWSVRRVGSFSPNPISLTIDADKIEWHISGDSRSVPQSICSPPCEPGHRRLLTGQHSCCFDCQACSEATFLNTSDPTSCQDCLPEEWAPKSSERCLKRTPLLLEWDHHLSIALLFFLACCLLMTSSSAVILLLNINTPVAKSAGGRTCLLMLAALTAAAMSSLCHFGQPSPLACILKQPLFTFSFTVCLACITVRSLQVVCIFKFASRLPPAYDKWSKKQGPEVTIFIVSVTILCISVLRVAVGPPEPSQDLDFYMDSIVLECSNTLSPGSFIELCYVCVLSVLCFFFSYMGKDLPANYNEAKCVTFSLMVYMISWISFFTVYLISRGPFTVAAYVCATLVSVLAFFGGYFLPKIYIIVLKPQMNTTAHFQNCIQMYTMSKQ
T1 sequence (Q2MHJ8 20-853): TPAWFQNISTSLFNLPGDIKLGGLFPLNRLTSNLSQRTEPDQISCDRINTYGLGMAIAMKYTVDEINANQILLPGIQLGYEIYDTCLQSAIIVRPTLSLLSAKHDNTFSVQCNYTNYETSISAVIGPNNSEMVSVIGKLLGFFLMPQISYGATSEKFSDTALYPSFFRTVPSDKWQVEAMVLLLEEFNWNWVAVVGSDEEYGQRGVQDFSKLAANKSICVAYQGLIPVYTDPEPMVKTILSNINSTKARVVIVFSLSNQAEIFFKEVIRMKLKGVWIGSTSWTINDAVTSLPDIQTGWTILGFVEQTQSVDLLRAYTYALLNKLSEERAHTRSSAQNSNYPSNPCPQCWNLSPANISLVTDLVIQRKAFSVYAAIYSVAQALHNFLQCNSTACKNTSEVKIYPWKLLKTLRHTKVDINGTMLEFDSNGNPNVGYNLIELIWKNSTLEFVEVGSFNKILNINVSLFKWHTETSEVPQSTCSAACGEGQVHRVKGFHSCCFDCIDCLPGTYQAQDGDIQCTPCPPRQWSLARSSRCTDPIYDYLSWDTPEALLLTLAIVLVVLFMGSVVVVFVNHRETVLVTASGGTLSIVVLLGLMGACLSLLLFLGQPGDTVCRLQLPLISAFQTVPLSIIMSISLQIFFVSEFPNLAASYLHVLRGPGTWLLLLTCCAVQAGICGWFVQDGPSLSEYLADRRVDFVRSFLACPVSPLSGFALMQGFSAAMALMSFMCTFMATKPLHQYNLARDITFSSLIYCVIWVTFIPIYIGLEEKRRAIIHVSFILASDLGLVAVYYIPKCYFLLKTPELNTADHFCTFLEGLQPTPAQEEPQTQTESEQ

[2] = molecular target: T2, pufferfish Tas1r1/Tas1r3LBD ("wild-type", free-cysteine eliminated) (Takifugu rubripes, UniProt Q2MHJ8+Q2MHK1, Q2MHJ8:C238S/Q2MHK1:C242S/Q2MHK1:E174A); assay: differential scanning fluorimetry; type: binding; settings: read-out: Kd-app
T2 construct: Tas1r1 Met1-Ser501 with C-terminal PA tag, Tas1r3 Met1-Ser496 with C-terminal FLAG tag; Endo H treated for crystals
Text: (§1) differential scanning fluorimetry on pufferfish Tas1r1/Tas1r3LBD ("wild-type", free-cysteine eliminated)

[3] = molecular target: T3, pufferfish Tas1r1/Tas1r3LBD ("wild-type", free-cysteine eliminated) (Takifugu rubripes, UniProt Q2MHJ8+Q2MHK1, Q2MHJ8:C238S/Q2MHK1:C242S/Q2MHK1:R469V); assay: differential scanning fluorimetry; type: binding; settings: read-out: Kd-app
T3 construct: Tas1r1 Met1-Ser501 with C-terminal PA tag, Tas1r3 Met1-Ser496 with C-terminal FLAG tag; Endo H treated for crystals
Text: as §1

[4] = molecular target: T4, pufferfish Tas1r1/Tas1r3LBD ("wild-type", free-cysteine eliminated) (Takifugu rubripes, UniProt Q2MHJ8+Q2MHK1, Q2MHJ8:C238S/Q2MHK1:C242S/Q2MHK1:D306A); assay: differential scanning fluorimetry; type: binding; settings: read-out: Kd-app
T4 construct: Tas1r1 Met1-Ser501 with C-terminal PA tag, Tas1r3 Met1-Ser496 with C-terminal FLAG tag; Endo H treated for crystals
Text: as §1

[5] = molecular target: T5, pufferfish Tas1r1/Tas1r3LBD ("wild-type", free-cysteine eliminated) (Takifugu rubripes, UniProt Q2MHJ8+Q2MHK1, Q2MHJ8:C238S/Q2MHK1:C242S); assay: differential scanning fluorimetry; type: binding; settings: read-out: Kd-app
T5 construct: Tas1r1 Met1-Ser501 with C-terminal PA tag, Tas1r3 Met1-Ser496 with C-terminal FLAG tag; Endo H treated for crystals
Text: as §1

[6] = molecular target: T6, pufferfish Tas1r1/Tas1r3LBD ("wild-type", free-cysteine eliminated) (Takifugu rubripes, UniProt Q2MHJ8+Q2MHK1, Q2MHJ8:C238S/Q2MHK1:C242S/Q2MHK1:Y385F); assay: differential scanning fluorimetry; type: binding; settings: read-out: Kd-app
T6 construct: Tas1r1 Met1-Ser501 with C-terminal PA tag, Tas1r3 Met1-Ser496 with C-terminal FLAG tag; Endo H treated for crystals
Text: as §1

[7] = molecular target: T5, pufferfish Tas1r1/Tas1r3LBD ("wild-type", free-cysteine eliminated); assay: X-ray crystal structure; DSF; type: binding; settings: orthosteric site in both subunits

Kd [2]	Kd [3]	Kd [4]	Kd [5]	Kd [6]	Structure (SMILES)	response at 50 mM [1]	X-ray crystal structure; DSF [7]
61.4 ± 17.7 µM	203 ± 13 µM	97.9 ± 22.5 µM	126 ± 7 µM	186 ± 13 µM	C[C@H](N)C(=O)O [L-alanine]	The receptor bound and responded to a wide range of L-amino acids, including L-alanine	–
–	–	–	1290 ± 140 µM	–	CC(C)(N)C(=O)O [2-methylalanine]	–	–
–	–	–	–	–	N[C@H](Cc1ccccc1)C(=O)O [D-phenylalanine]	D-alanine and D-phenylalanine demonstrated a relatively high extent of binding and evoked low	D-phenylalanine-bound Tas1r1/Tas1r3LBD structure also adopts a compact dimerization manner
–	–	–	345 ± 8 µM	–	CN[C@@H](C)C(=O)O [N-methyl-L-alanine]	–	–
1690 ± 460 µM	1880 ± 140 µM	3140 ± 910 µM	1440 ± 90 µM	1980 ± 120 µM	C[C@@H](N)C(=O)O [D-alanine]	D-alanine and D-phenylalanine demonstrated a relatively high extent of binding and evoked low	–
